Reference: ChEMBL document CHEMBL3046449, “Selective Herbicidal Activities of Ethyl 5-(4, 6-Dimethoxypyrimidin-2-ylcarbamoylsulfamoyl)-1-methylpyrazole-4-carboxylate and Its Related Compounds” (J Pestic Sci, 1990)

Key:
[1] = system: Oryza sativa; experiment: Effect on Oryza sativa (rice) plant growth in transplanted Oryza sativa field assessed as number of tillers at 30 g/ha treated after 3 days transplanting; type: organism-based; settings: in vivo, other, 72 h
[2] = system: Echinochloa crus-galli; experiment: Herbicidal activity against Echinochloa crus-galli (barnyard grass) assessed as weed control in transplanted rice field at 30 g/ha treated after 10 days transplanting; type: functional
[3] = system: Echinochloa crus-galli; experiment: Herbicidal activity against Echinochloa crus-galli (barnyard grass) assessed as weed control in transplanted rice field at 20 g/ha treated after 3 days transplanting; type: functional
[4] = system: Schoenoplectiella juncoides; experiment: Herbicidal activity against Schoenoplectiella juncoides assessed as weed control in transplanted rice field at 20 g/ha treated after 3 days transplanting; type: functional
[5] = system: Sagittaria pygmaea; experiment: Herbicidal activity against Sagittaria pygmaea assessed as weed control in transplanted rice field at 20 g/ha treated after 3 days transplanting; type: functional
[6] = system: Oryza sativa; experiment: Effect on Oryza sativa (rice) plant growth in transplanted Oryza sativa field assessed as number of tillers at 30 g/ha treated after 7 days transplanting; type: organism-based; settings: in vivo, other, 168 h
[7] = system: Sagittaria pygmaea; experiment: Herbicidal activity against Sagittaria pygmaea assessed as weed control in transplanted rice field at 30 g/ha treated after 10 days transplanting; type: functional
[8] = system: Schoenoplectiella juncoides; experiment: Herbicidal activity against Schoenoplectiella juncoides assessed as growth inhibition measured after 2 days by preemergence activity assay; type: functional
[9] = system: Echinochloa crus-galli; experiment: Herbicidal activity against Echinochloa crus-galli (barnyard grass) assessed as weed control in transplanted rice field at 30 g/ha treated after 7 days transplanting; type: functional
[10] = Phytotoxicity against Oryza sativa (rice) assessed as growth inhibition under greenhouse at 5 g/ha measured after 18 days by preemergence activity assay; type: organism-based; settings: in vivo, read-out: GI
[11] = system: Oryza sativa; experiment: Effect on Oryza sativa (rice) plant growth in transplanted Oryza sativa field assessed as number of tillers at 30 g/ha treated after 15 days transplanting; type: organism-based; settings: in vivo, other, 360 h
[12] = system: Schoenoplectiella juncoides; experiment: Herbicidal activity against Schoenoplectiella juncoides assessed as weed control in transplanted rice field at 30 g/ha treated after 10 days transplanting; type: functional
[13] = system: Alisma canaliculatum; experiment: Herbicidal activity against three to four-leaf stage Alisma canaliculatum assessed as growth inhibition treated 7 to 15 days after planting measured by post-emergence activity assay; type: functional
[14] = system: Pontederia vaginalis; experiment: Herbicidal activity against Monochoria vaginalis assessed as growth inhibition measured after 2 days by preemergence activity assay; type: functional
[15] = system: Echinochloa crus-galli; experiment: Herbicidal activity against Echinochloa crus-galli (barnyard grass) assessed as weed control in transplanted rice field at 30 g/ha treated after 15 days transplanting; type: functional
[16] = system: Oryza sativa; experiment: Effect on Oryza sativa (rice) plant growth in transplanted Oryza sativa field assessed as plant height at 30 g/ha treated after 15 days transplanting; type: organism-based; settings: in vivo, 360 h
[17] = system: Echinochloa crus-galli; experiment: Herbicidal activity against Echinochloa crus-galli (barnyard grass) assessed as growth inhibition measured after 2 days by preemergence activity assay; type: functional
[18] = system: Schoenoplectiella juncoides; experiment: Herbicidal activity against Schoenoplectiella juncoides assessed as weed control in transplanted rice field at 30 g/ha treated after 7 days transplanting; type: functional
[19] = system: Cyperus serotinus; experiment: Herbicidal activity against Cyperus serotinus assessed as weed control in transplanted rice field at 30 g/ha treated after 15 days transplanting; type: functional
[20] = system: Oryza sativa; experiment: Effect on Oryza sativa (rice) plant growth in transplanted Oryza sativa field assessed as number of tillers at 30 g/ha treated after 10 days transplanting; type: organism-based; settings: in vivo, other, 240 h
[21] = system: Schoenoplectiella juncoides; experiment: Herbicidal activity against two-leaf stage Schoenoplectiella juncoides assessed as growth inhibition treated 7 to 15 days after planting measured by postemergence activity assay; type: functional
[22] = system: Oryza sativa; experiment: Effect on Oryza sativa (rice) plant growth in transplanted Oryza sativa field assessed as plant height at 30 g/ha treated after 3 days transplanting; type: organism-based; settings: in vivo, other, 72 h
[23] = system: Sagittaria pygmaea; experiment: Herbicidal activity against Sagittaria pygmaea assessed as weed control in transplanted rice field at 30 g/ha treated after 7 days transplanting; type: functional
[24] = system: Schoenoplectiella juncoides; experiment: Herbicidal activity against Schoenoplectiella juncoides assessed as weed control in transplanted rice field at 30 g/ha treated after 3 days transplanting; type: functional
[25] = system: Cyperus serotinus; experiment: Herbicidal activity against Cyperus serotinus assessed as weed control in transplanted rice field at 20 g/ha treated after 3 days transplanting; type: functional
[26] = system: Cyperus serotinus; experiment: Herbicidal activity against Cyperus serotinus assessed as weed control in transplanted rice field at 30 g/ha treated after 7 days transplanting; type: functional
[27] = system: Oryza sativa; experiment: Effect on Oryza sativa (rice) plant growth in transplanted Oryza sativa field assessed as plant height at 30 g/ha treated after 10 days transplanting; type: organism-based; settings: in vivo, other, 240 h
[28] = system: Echinochloa crus-galli; experiment: Herbicidal activity against Echinochloa crus-galli (barnyard grass) assessed as growth inhibition in paddy condition under greenhouse at 5 g/ha measured after 18 days by preemergence activity assay; type: functional; settings: pre-emergence, 432 h, read-out: GI
[29] = system: Pontederia vaginalis; experiment: Herbicidal activity against Monochoria vaginalis assessed as weed control in transplanted rice field at 20 g/ha treated after 7 days transplanting; type: functional
[30] = system: Pontederia vaginalis; experiment: Herbicidal activity against Monochoria vaginalis assessed as weed control in transplanted rice field at 30 g/ha treated after 10 days transplanting; type: functional
[31] = system: Pontederia vaginalis; experiment: Herbicidal activity against Monochoria vaginalis assessed as weed control in transplanted rice field at 30 g/ha treated after 3 days transplanting; type: functional
[32] = system: Echinochloa crus-galli; experiment: Herbicidal activity against 1.5 leaf stage Echinochloa crus-galli (barnyard grass) assessed as growth inhibition treated 7 to 15 days after planting measured by postemergence activity assay; type: functional
[33] = system: Sagittaria pygmaea; experiment: Herbicidal activity against Sagittaria pygmaea assessed as growth inhibition measured after 2 days by pre-emergence activity assay; type: functional
[34] = system: Pontederia vaginalis; experiment: Herbicidal activity against Monochoria vaginalis assessed as weed control in transplanted rice field at 30 g/ha treated after 15 days transplanting; type: functional
[35] = system: Sagittaria pygmaea; experiment: Herbicidal activity against Sagittaria pygmaea assessed as weed control in transplanted rice field at 20 g/ha treated after 7 days transplanting; type: functional
[36] = system: Echinochloa crus-galli; experiment: Herbicidal activity against Echinochloa crus-galli (barnyard grass) assessed as weed control in transplanted rice field at 30 g/ha treated after 3 days transplanting; type: functional
[37] = system: Cyperus serotinus; experiment: Herbicidal activity against Cyperus serotinus assessed as weed control in transplanted rice field at 30 g/ha treated after 10 days transplanting; type: functional
[38] = system: Alisma canaliculatum; experiment: Herbicidal activity against Alisma canaliculatum assessed as growth inhibition measured after 2 days by pre-emergence activity assay; type: functional
[39] = system: Cyperus serotinus; experiment: Herbicidal activity against three to four-leaf stage Cyperus serotinus assessed as growth inhibition treated 7 to 15 days after planting measured by postemergence activity assay; type: functional
[40] = system: unidentified; experiment: Herbicidal activity against broadleaf weed assessed as weed control in transplanted rice field at 20 g/ha treated after 7 days transplanting; type: functional
[41] = system: Oryza sativa; experiment: Effect on Oryza sativa (rice) plant growth in transplanted Oryza sativa field assessed as number of tillers at 20 g/ha treated after 7 days transplanting; type: organism-based; settings: in vivo, other, 168 h
[42] = system: Pontederia vaginalis; experiment: Herbicidal activity against Monochoria vaginalis assessed as growth inhibition in paddy condition under greenhouse at 5 g/ha measured after 18 days by preemergence activity assay; type: functional; settings: pre-emergence, 432 h, read-out: GI
[43] = system: Sagittaria pygmaea; experiment: Herbicidal activity against Sagittaria pygmaea assessed as weed control in transplanted rice field at 30 g/ha treated after 3 days transplanting; type: functional
[44] = Herbicidal activity against broadleaf weed assessed as weed control in transplanted rice field at 20 g/ha treated after 3 days transplanting; type: functional
[45] = system: Sagittaria pygmaea; experiment: Herbicidal activity against Sagittaria pygmaea assessed as weed control in transplanted rice field at 30 g/ha treated after 15 days transplanting; type: functional

In the case of `CCOC(=O)c1cnn(C)c1S(=O)(=O)NC(=O)Nc1nc(OC)cc(OC)n1` [PYRAZOSULFURON ETHYL], the Activity [1] is reported as 99%, the Activity [2] is reported as 90% and the Activity [3] is reported as 98%. It also gave an Activity [4] of 97%, an Activity [5] of 95% and an Activity [6] of 100%. For the same compound, the Activity [7] was 95%, the I75 [8] was 8.3 gAi/ha and the Activity [9] was 98%. It also gave an inhibition at 432 h [10] of under 5%, an Activity [11] of 105% and an Activity [12] of 93%. The I75 [13] was 1.4 gAi/ha, the I75 [14] was 2.7 gAi/ha and the Activity [15] was 85%. For the same compound, the Activity [16] was 101%, the I75 [17] was 13 gAi/ha and the Activity [18] was 100%. For the same compound, the Activity [19] was 97%, the Activity [20] was 101% and the I75 [21] was 13 gAi/ha. It also gave an Activity [22] of 104%, an Activity [23] of 98% and an Activity [24] of 100%. For the same compound, the Activity [25] was 98%, the Activity [26] was 100% and the Activity [27] was 102%. It also gave an inhibition of growth at 5 g/ha [28] of 40%, an Activity [29] of 100% and an Activity [30] of 93%. The Activity [31] was 100%, the I75 [32] was 18 gAi/ha and the I75 [33] was 1.9 gAi/ha. It also gave an Activity [34] of 97%, an Activity [35] of 98% and an Activity [36] of 97%. For the same compound, the Activity [37] was 97%, the I75 [38] was 2.1 gAi/ha and the I75 [39] was 1.9 gAi/ha. The Activity [40] was 100%, the Activity [41] was 96% and the inhibition of growth at 5 g/ha [42] was over 90%. The Activity [43] was 97%, the Activity [44] was 100% and the Activity [45] was 95%.
